Measurements reported in patent EP1218402B1 (Dabur Research Foundation, priority 1999, dated 2001).

Columns and labels:
ECV304 [1] = experiment: MTT assay, inhibition of proliferation of ECV304 endothelial cells (72 hours); type: cell-based, human; conditions: concentration causing 50% cytotoxicity
Protocol: 30µl of ECV304 cell suspension (50 x 10^4 cells/ml in RPMI 1640 containing 10% FBS) followed by 150µl of medium was added to the wells of a 96-well tissue culture plate (Nunc, Denmark) and incubated (37°C, 5% CO2) overnight. […] Each concentration was plated in triplicates. 20µl of medium alone was added to control wells. After 72 hours of incubation an MTT assay (Mosmann, 1983) was performed and percentage inhibition in proliferation of treated cells was calculated with respect to control cells.

DU145 = experiment: Cytotoxicity assay for tumor cells, prostate DU145; type: cell-based; conditions: concentration causing 50% cytotoxicity
Description: (§1) The cytotoxicity assays for tumor cells have been described in detail in our application No. 09/040,856 filed in US on March 18, 1998. […] Table - I

L132 = experiment: Cytotoxicity assay for tumor cells, lung L132; type: cell-based; conditions: concentration causing 50% cytotoxicity
Description: as §1

PA-1 = experiment: Cytotoxicity assay for tumor cells, ovary PA-1; type: cell-based; conditions: concentration causing 50% cytotoxicity
Description: as §1

HT-29 = experiment: Cytotoxicity assay for tumor cells, colon HT-29; type: cell-based; conditions: concentration causing 50% cytotoxicity
Description: as §1

ECV304 [2] = experiment: Tube-like-structure (TLS) formation of ECV304 cells on Matrigel; type: cell-based, human; conditions: 24 - 48 hours, mean of five fields
Protocol: Matrigel (70 µl) was placed into each well of a 96-well culture plate at 4°C and was allowed to polymerize by incubation at 37°C for 30 min. ECV304 (1 x 10^4) cells were seeded on the Matrigel in 200 µl DMEM containing 10% FBS. […] Five different phase-contrast microscopic fields (4X) were viewed and total tube area of the tube-like-structures (TLS) measured using Video Pro 32 Image Analysis system. Percent reduction in total tube area was given as the mean of the data from five fields. Percent inhibition of TLS was calculated with reference to Controls(no drug). Table - III

Structure (SMILES)	Endothelial ECV304 (ED50) (ECV304 [1])	Prostate DU145 (ED50) (DU145)	Lung L132 (ED50) (L132)	Ovary PA-1 (ED50) (PA-1)	Colon HT-29 (ED50) (HT-29)	% reduction in total tube area at concentration 0.5 µg/ml (ECV304 [2])	% reduction in total tube area at concentration 2 µg/ml (ECV304 [2])	% reduction in total tube area at concentration 4 µg/ml (ECV304 [2])
C=C(C)C1CCC2(C(=O)O)CCC3(C)C(CCC4C5(C)CCC(=NNc6ccccc6)C(C)(C)C5CCC43C)C12 (stereo not shown) [MJ353-RS]	2.4 µg/mL	6.5 µg/mL	4.5 µg/mL	5 µg/mL	> 10 µg/mL	–	–	–
COc1ccc(NNC2CCC3(C)C(CCC4(C)C3CCC3C5C(C(C)C)CCC5(C(=O)O)CCC34C)C2(C)C)cc1 (stereo not shown) [MJ912-RS]	0.4 µg/mL	8.5 µg/mL	> 4 µg/mL	–	0.35 µg/mL	–	–	–
CC(C)C1CCC2(C(=O)O)CCC3(C)C(CCC4C5(C)CCC(OC(=O)c6cc(F)cc(F)c6)C(C)(C)C5CCC43C)C12 (stereo not shown) [MJ935-RS]	0.7 µg/mL	3.2 µg/mL	1.2 µg/mL	–	> 10 µg/mL	–	–	–
CC(C)C1CCC2(C(=O)O)CCC3(C)C(CCC4C5(C)CCC(OC(=O)c6ccc(F)cc6F)C(C)(C)C5CCC43C)C12 (stereo not shown) [MJ937-RS]	0.7 µg/mL	2.5 µg/mL	1.1 µg/mL	1.6 µg/mL	1.7 µg/mL	16.7%	21%	21.7%
C=C(C)C1CCC2(C(=O)O)CCC3(C)C(CCC4C5(C)CCC(OC(=O)c6cccc(C(F)(F)F)c6)C(C)(C)C5CCC43C)C12 (stereo not shown) [MJ939-RS]	0.9 µg/mL	> 10 µg/mL	2.7 µg/mL	> 4 µg/mL	> 10 µg/mL	–	–	–
CC(C)C1CCC2(C(=O)O)CCC3(C)C(CCC4C5(C)CCC(OC(=O)c6ccccc6C(F)(F)F)C(C)(C)C5CCC43C)C12 (stereo not shown) [MJ943-RS]	2.6 µg/mL	> 4 µg/mL	4 µg/mL	> 4 µg/mL	> 10 µg/mL	–	–	–
CC(C)C1CCC2(C(=O)O)CCC3(C)C(CCC4C5(C)CCC(N=Cc6ccc(F)c(F)c6)C(C)(C)C5CCC43C)C12 (stereo not shown) [MJ998-RS]	0.35 µg/mL	2.2 µg/mL	2.5 µg/mL	1.3 µg/mL	4 µg/mL	21.1%	13.4%	33.4%
CC(C)C1CCC2(C(=O)O)CCC3(C)C(CCC4C5(C)CCC(N=Cc6ccc(F)cc6F)C(C)(C)C5CCC43C)C12 (stereo not shown) [MJ1065-RS]	2.4 µg/mL	2.5 µg/mL	3.4 µg/mL	1.3 µg/mL	4.9 µg/mL	23.4%	16.7%	46.7%
CC(C)C1CCC2(C(=O)O)CCC3(C)C(CCC4C5(C)CCC(=NOCc6ccc([N+](=O)[O-])cc6)C(C)(C)C5CCC43C)C12 (stereo not shown) [MJ1098-RS]	0.6 µg/mL	1.5 µg/mL	1.3 µg/mL	1.6 µg/mL	2.6 µg/mL	15%	7.5%	10%
C=C(C)C1CCC2(C(=O)O)CCC3(C)C(CCC4C5(C)CCC(OC(=O)c6ccc(CCCCC)cc6)C(C)(C)C5CCC43C)C12 (stereo not shown) [MJ1104-RS]	1.9 µg/mL	2 µg/mL	5.9 µg/mL	> 4 µg/mL	3.5 µg/mL	–	–	–
C=C(C)C1CCC2(C(=O)O)CCC3(C)C(CCC4C5(C)CCC(OC(=O)Cc6cc(OC)ccc6OC)C(C)(C)C5CCC43C)C12 (stereo not shown) [MJ1108-RS]	1.8 µg/mL	1 µg/mL	4.6 µg/mL	–	> 10 µg/mL	–	–	–
